We go through 21 molecules from US9834541B2, “2-aminopyridine compounds” (Merck Patent GmbH, priority 2012, dated 2017).

Data set [1] can be described thus: CLint (intrinsic clearance) assay, liver microsomal incubation. The data set is classed as in vitro ADME, human. As to conditions: liver microsomes, pH 7.4; human hepatic microsomes, 0.5 mg/mL protein, class symbols. On the procedure:
Also shown is the human hepatic microsomal intrinsic clearance (CLint), whereby the following classification is used:
2. CLint (Intrinsic Clearance) Assay
A Tecan Genesis workstation (RWS ASY 150/8) was used to perform the microsomal incubations. Analysis was carried out using a Waters ACQUITY UPLC system coupled to an ABSciex API3000 mass spectrometer. Data analysis was performed using Assay Explorer (Symyx).
Column: Acquity UPLC BEH C18, 2.1×50 mm, 1.7 um (Waters)
Mobile phases: • A=0.1% formic acid in water • B=acetonitrile
Column temperature: 50° C.
0.1 M potassium phosphate buffer pH 7.4 containing 1 mM MgCl2
15 mM NADPH in phosphate buffer
5.0 mg protein/mL liver microsomes in phosphate buffer
Each experiment consists of 12 test and 2 reference compounds. The reference compounds are incubated as a cocktail.
Dilution of test compounds was done in 2 steps from a 10 mM DMSO stock solution. First 4 μL stock solution was added to 196 μL of 20% DMSO in potassium phosphate buffer pH 7.4. In a second step 10 μL of the first dilution were added to 1890 μL potassium phosphate buffer and 100 μL internal standard solution to a final concentration of […].
100 μL of the final compound dilution were aliquoted into a 96 deep well plate. 12.5 μL liver microsomes were added to each well (0.5 mg/mL final protein concentration) and the samples preincubated for 5 min at 37° C. and 800 rpm agitation.
After the preincubation, 250 μL cold acetonitrile were added to the 0 min samples to prevent a reaction. Following this, 12.5 μL NADPH solution were added to all wells to start the incubation, with the exception of the 0 min and 30 min controls without cofactor, where the NADPH was substituted for phosphate buffer.
The incubations were stopped after 5, 10, 20 and 30 min by adding 250 μL cold acetonitrile to the individual wells.
The quenched samples were then centrifuged at 4000 g for 1 h at 4° C. 100 μL of the supernatant were transferred into 96 well plates for analysis.
The metabolic stability of each compound was determined by measurement of the change in LC-MS/MS peak area over time. Assay Explorer software was used to automatically calculate the slope k of the decline. The intrinsic clearance (CLint) of each compound was then calculated according to the formula: CLint(μL/min/mg protein)=k1000/protein concentration.
For orientation: Liver microsomes are a subcellular fraction often used to study metabolism.

The subject of a further data set is Wnt pathway. Nature of the data set: Cellular assay for Wnt pathway activity, LS174T-shl-fLuc clone 5 (LS174T-L5) luciferase reporter assay. In kind it is cell-based. As to conditions: Homo sapiens; LS174T TCF luciferase reporter cells, 24 hours incubation. The source says:
1. Cellular Assay for Wnt Pathway Activity LS174T-shl-fLuc Clone 5 (LS174T-L5) Reporter Assay Principle:
This assay is based on an in-vitro luciferase activity readout. The human colon cancer cell line, LS174T was transduced with a lentivirus encoding a short half-life luciferase (with a destabilised PEST sequence construct; construct F1756): 16×TCF/LEF transcription sites—short half life firefly luciferase on a basal pTA promoter—puromycin resistance gene on an EF-1-α promoter). This construct was made using the lentiviral base vector: pCDF1-MCS2-EF1-Puro from System Biosciences (cat. # CD110B-1). The luciferase has a T1/2 of about 60 minutes.
Stable luciferase-expressing clones were selected, using 1 μg/mL puromycin selection and the clones were bulked up.
Compounds that inhibit the Wnt pathway are predicted to inhibit the induction of luciferase transcription by TCF; this will result in reduced luciferase protein production and luciferase signal readout.
Compounds were tested for their Wnt pathway inhibitory activities using the described firefly luciferase reporter cell based assay. An LS174T luciferase reporter cell line was used which contained a T-Cell Factor (TCF) dependent gene promoter firefly luciferase construct.
Compounds, in concentrations from 30 μM to 1 nM, were incubated for 24 hours on the cells. Luciferase activities were determined using the Steady Glo Luciferase Assay System (Promega) and the TOPCOUNT microplate reader (Perkin Elmer). For analysis, the obtained data were normalized against the untreated vehicle control and fitted for determination of the IC50 values using the Excel Fit application of the Excel Software (Microsoft).
(In general: Reporter assays use an easily measured gene product as a stand-in for the process of interest.)

Where only a bound is given, the exact number is not on record here.

The microsomal CLint is the capacity of the preparation to metabolise the compound, expressed as a volume cleared per time. The term IC50 denotes the midpoint of a concentration-inhibition curve. Higher therefore signals lower potency.

In the case of `CN1c2ccc(-c3cnc(N)c(F)c3N3CCC4(CCNC4=O)CC3)cc2CS1(=O)=O` [Compound 61, 8-[2-Amino-3-fluoro-5-(1-methyl-2,2-dioxo-2,3-dihydro-1H-2l6-benzo[c]isothiazol-5-yl)-pyridin-4-yl]-2,8-diaza-spiro[4.5]decan-1-one], the microsomal CLint at 0.8 μM in data set [1] was in the range of 10 to 50 µL/min/mg. Also, in the data set with Wnt pathway, the IC50 is 60.1 nM.

`Nc1ncc(-c2ccc3c(N)n[nH]c3c2)c(N2CCC3(CCNC3=O)CC2)c1Cl` [Compound 3, 8-[2-Amino-5-(3-amino-1H-indazol-6-yl)-3-chloro-pyridin-4-yl]-2,8-diaza-spiro[4.5] decan-1-one]: in data set [1], the microsomal CLint at 0.8 μM was below 10 µL/min/mg. Further, the midpoint of inhibition in the data set on Wnt pathway, the IC50, lay at 120 nM.

On to `CCN1Cc2cc(-c3cnc(N)c(Cl)c3N3CCC4(CCNC4=O)CC3)ccc2S1(=O)=O` [Compound 68, 8-[2-Amino-3-chloro-5-(2-ethyl-1,1-dioxo-2,3-dihydro-1H-1l6-benzo[d]isothiazol-5-yl)-pyridin-4-yl]-2,8-diaza-spiro[4.5]decan-1-one], for which the intrinsic clearance (microsomal CLint) at 0.8 μM in data set [1] is below 10 µL/min/mg. In the data set with Wnt pathway, this molecule came in with an IC50 of 59 nM.

`CN1c2ccc(-c3cnc(N)c(C(F)(F)F)c3N3CCC4(CC3)CNC(=O)O4)cc2CS1(=O)=O` [Compound 42, 8-[2-Amino-5-(1-methyl-2,2-dioxo-2,3-dihydro-1H-2I6-benzo[c]isothiazol-5-yl)-3-trifluoro-methyl-pyridin-4-yl]-1-oxa-3,8-diaza-spiro[4.5] decan-2-one]: the microsomal CLint at 0.8 μM in data set [1] lay in the range of 10 to 50 µL/min/mg. This molecule also had an IC50 in the data set on Wnt pathway of 11 nM.

For the molecule `CN1C(=O)Cc2cc(-c3cnc(N)c(Cl)c3N3CCC4(CCNC4=O)CC3)ccc21` [Compound 15, 8-[2-Amino-3-chloro-5-(1-methyl-2-oxo-2,3-dihydro-1H-indol-5-yl)-pyridin-4-yl]-2,8-diaza-spiro[4.5] decan-1-one], the microsomal CLint at 0.8 μM in data set [1] was 10 to 50 µL/min/mg. This molecule also displayed an IC50 with Wnt pathway of 54 nM.

For the molecule `CN1C(=O)Cc2cc(-c3cnc(N)c(C(F)(F)F)c3N3CCC4(CCNC4=O)CC3)ccc21` [Compound 51, 8-[2-Amino-5-(1-methyl-2-oxo-2,3-dihydro-1H-indol-5-yl)-3-trifluoromethyl-pyridin-4-yl]-2,8-diaza-spiro[4.5] decan-1-one], in data set [1], the microsomal CLint at 0.8 μM was 10 to 50 µL/min/mg. Further, in the data set with Wnt pathway, the half-maximal inhibitory concentration (IC50) turned out to be 455 nM.

For `Cn1ncc2cc(-c3cnc(N)c(Cl)c3N3CCC4(CC3)C(=O)Nc3ccccc34)ccc21` [Compound 31, 1′-(2-Amino-3-chloro-5-(1-methyl-1H-indazol-5-yl)pyridin-4-yl)spiro[indoline-3,4′-piperidin]-2-one], in data set [1], the microsomal CLint at 0.8 μM fell in the range of 50 to 100 µL/min/mg. In addition, 4 nM corresponded to half-maximal inhibition with Wnt pathway (IC50).

`Cn1ncc2cc(-c3cnc(N)c(F)c3N3CCC4(CCNC4=O)CC3)ccc21` [Compound 64, 8-[2-Amino-3-fluoro-5-(1-methyl-1H-indazol-5-yl)-pyridin-4-yl]-2,8-diaza-spiro[4.5] decan-1-one]: the intrinsic clearance (microsomal CLint) at 0.8 μM in data set [1] lay in the range of 10 to 50 µL/min/mg. The molecule further registered an IC50 in the data set on Wnt pathway of 644 nM.

With `Nc1ncc(-c2ccc3c(N)n[nH]c3c2)c(N2CCC3(CC2)NC(=O)NC3=O)c1Cl` [Compound 5, 8-[2-Amino-5-(3-amino-1H-indazol-6-yl)-3-chloro-pyridin-4-yl]-1,3,8-triaza-spiro[4.5] decane-2,4-dione], the microsomal CLint at 0.8 μM in data set [1] is below 10 µL/min/mg. The IC50 in the data set with Wnt pathway turned out to be 1500 nM.

Regarding `CCN1c2ccc(-c3cnc(N)c(Cl)c3N3CCC4(CCNC4=O)CC3)cc2CS1(=O)=O` [Compound 58, 8-[2-Amino-3-chloro-5-(1-ethyl-2,2-dioxo-2,3-dihydro-1H-2I6-benzo[c]isothiazol-5-yl)-pyridin-4-yl]-2,8-diaza-spiro[4.5] decan-1-one], in data set [1], the microsomal CLint at 0.8 μM was at least 150 µL/min/mg. Besides, in the data set with Wnt pathway, the IC50 worked out at 7.6 nM.

Turning to `Nc1ncc(-c2ccc3c(c2)CCS3(=O)=O)c(N2CCC3(CCNC3=O)CC2)c1Cl` [Compound 62, 8-[2-Amino-3-chloro-5-(1,1-dioxo-2,3-dihydro-1H-1I6-benzo[b]thiophen-5-yl)-pyridin-4-yl]-2,8-diaza-spiro[4.5] decan-1-one], the microsomal CLint at 0.8 μM in data set [1] lay in the range of 10 to 50 µL/min/mg. The half-maximal inhibitory concentration (IC50) in the data set on Wnt pathway turned out to be 450 nM.

As to `CC(C)n1ncc2ccc(-c3cnc(N)c(Cl)c3N3CCC4(CCNC4=O)CC3)cc21` [Compound 73, 8-[2-Amino-3-chloro-5-(1-isopropyl-1H-indazol-6-yl)-pyridin-4-yl]-2,8-diaza-spiro[4.5] decan-1-one], in data set [1], the microsomal CLint at 0.8 μM fell in the range of 100 to 150 µL/min/mg. The molecule also registered an IC50 with Wnt pathway of 54 nM.

For `CS(=O)(=O)CCn1cc(-c2ccc(-c3cnc(N)c(Cl)c3N3CCC4(CCNC4=O)CC3)cc2)cn1` [Compound 59, 8-(2-Amino-3-chloro-5-{4-[1-(2-methanesulfonyl-ethyl)-1H-pyrazol-4-yl]-phenyl}-pyridin-4-yl)-2,8-diaza-spiro[4.5] decan-1-one], the microsomal CLint at 0.8 μM in data set [1] was 10 to 50 µL/min/mg. This molecule had an IC50 in the data set with Wnt pathway of 45 nM.

As for `CN1c2ccc(-c3cnc(N)c(Cl)c3N3CCC4(CC3)CNC(=O)O4)cc2CS1(=O)=O` [Compound 4, 8-[2-Amino-3-chloro-5-(1-methyl-2,2-dioxo-2,3-dihydro-1H-2I6-benzo[c]isothiazol-5-yl)-pyridin-4-yl]-1-oxa-3,8-diaza-spiro[4.5] decan-2-one], in data set [1], the microsomal CLint at 0.8 μM is below 10 µL/min/mg. Further, the IC50 in the data set with Wnt pathway came to 38 nM.

In the case of `Cn1cc(-c2ccc(-c3cnc(N)c(Cl)c3N3CC[C@H](C#N)[C@@H](O)C3)cc2)cn1` (racemic) [Compound 56, rac (3R,4R)-2′-Amino-3′-chloro-3-hydroxy-5′-[4-(1-methyl-1H-pyrazol-4-yl)-phenyl]-3,4,5,6-tetrahydro-2H-[1,4′] bipyridinyl-4-carbonitrile], the microsomal CLint at 0.8 μM in data set [1] is 10 to 50 µL/min/mg. In addition, in the data set with Wnt pathway, the IC50 came out at 531 nM.

The molecule `Nc1ncc(-c2ccc(-c3cnn(CCO)c3)cc2)c(N2CCC3(CC2)NCCNC3=O)c1Cl` [Compound 45, 9-(2-Amino-3-chloro-5-{4-[1-(2-hydroxy-ethyl)-1H-pyrazol-4-yl]-phenyl}-pyridin-4-yl)-1,4,9-triaza-spiro[5.5] undecan-5-one] gave an IC50 in the data set with Wnt pathway of 560 nM.

`Cn1cc(-c2ccc(-c3cnc(N)c(C(F)(F)F)c3N3CCC(C(N)=O)CC3)cc2)cn1` [Compound 48, 2′-Amino-5′-[4-(1-methyl-1H-pyrazol-4-yl)-phenyl]-3′-trifluoro-methyl-3,4,5,6-tetrahydro-2H-[1,4′] bipyridinyl-4-carboxylic acid amide]: in the data set with Wnt pathway, the half-inhibitory concentration (IC50) was found to be 160 nM.

The molecule `Cn1cc(-c2ccc(-c3cnc(N)c(Cl)c3N3CCC4(CC3)CC(=O)NC4=O)cc2)cn1` [Compound 38, 8-(2-Amino-3-chloro-5-(4-(1-methyl-1H-pyrazol-4-yl)phenyl)pyridin-4-yl)-2,8-diazaspiro[4.5]decane-1,3-dione] registered an IC50 with Wnt pathway of 2 nM.

In turn, `Nc1ncc(-c2ccc3c(N)n[nH]c3c2)c(N2CCC3(CC2)CNC(=O)O3)c1Cl` [Compound 37, 8-[2-Amino-5-(3-amino-1H-indazol-6-yl)-3-chloro-pyridin-4-yl]-1-oxa-3,8-diaza-spiro[4.5] decan-2-one] displayed an IC50 in the data set with Wnt pathway of 2300 nM. This IC50 is about 1200-fold higher than that of the molecule before.

Consider `Nc1ncc(-c2ccc3[nH]ncc3c2)c(N2CCC3(CCNC3=O)CC2)c1Cl` [Compound 35, 8-[2-Amino-3-chloro-5-(1H-indazol-5-yl)-pyridin-4-yl]-2,8-diaza-spiro[4.5] decan-1-one], for which it took 85 nM to reach half-maximal inhibition in the data set with Wnt pathway (IC50).

In the data set on Wnt pathway, `CN1C(=O)Cc2cc(-c3cnc(N)c(Cl)c3N3CCC4(CC3)CNC(=O)O4)ccc21` [Compound 36, 8-[2-Amino-3-chloro-5-(1-methyl-2-oxo-2,3-dihydro-1H-indol-5-yl)-pyridin-4-yl]-1-oxa-3,8-diaza-spiro[4.5] decan-2-one] came in with an IC50 above 300 nM.
